According to patent US20260132140A1, “IMIDAZOLYL-AMINO-PYRAZINE-CARBONITRILS AS CHK-1 INHIBITORS” (BenevolentAI Bio Limited, priority 2022, published 2026):

How the values were obtained:
human Chk2 kinase = human Chk2 kinase (Homo sapiens, UniProt O96017); assay: biochemical
human Chk1 kinase = biological target: T1, human Chk1 kinase (Homo sapiens, UniProt O14757); assay: biochemical
T1 sequence (O14757 1-476): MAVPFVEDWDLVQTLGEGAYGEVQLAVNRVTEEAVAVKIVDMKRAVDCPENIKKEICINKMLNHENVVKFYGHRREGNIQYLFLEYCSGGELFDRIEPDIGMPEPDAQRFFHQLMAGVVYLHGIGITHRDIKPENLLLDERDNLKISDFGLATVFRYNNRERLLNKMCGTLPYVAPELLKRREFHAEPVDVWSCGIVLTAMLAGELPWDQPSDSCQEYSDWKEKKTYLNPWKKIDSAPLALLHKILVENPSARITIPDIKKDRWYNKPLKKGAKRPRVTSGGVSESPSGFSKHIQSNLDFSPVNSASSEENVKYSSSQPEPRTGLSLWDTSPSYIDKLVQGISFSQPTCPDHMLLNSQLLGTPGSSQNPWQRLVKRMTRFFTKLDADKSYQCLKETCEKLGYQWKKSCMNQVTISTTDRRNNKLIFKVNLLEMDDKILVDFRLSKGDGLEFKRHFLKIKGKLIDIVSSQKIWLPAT

Chain of human Chk2 kinase (O96017 whole entry): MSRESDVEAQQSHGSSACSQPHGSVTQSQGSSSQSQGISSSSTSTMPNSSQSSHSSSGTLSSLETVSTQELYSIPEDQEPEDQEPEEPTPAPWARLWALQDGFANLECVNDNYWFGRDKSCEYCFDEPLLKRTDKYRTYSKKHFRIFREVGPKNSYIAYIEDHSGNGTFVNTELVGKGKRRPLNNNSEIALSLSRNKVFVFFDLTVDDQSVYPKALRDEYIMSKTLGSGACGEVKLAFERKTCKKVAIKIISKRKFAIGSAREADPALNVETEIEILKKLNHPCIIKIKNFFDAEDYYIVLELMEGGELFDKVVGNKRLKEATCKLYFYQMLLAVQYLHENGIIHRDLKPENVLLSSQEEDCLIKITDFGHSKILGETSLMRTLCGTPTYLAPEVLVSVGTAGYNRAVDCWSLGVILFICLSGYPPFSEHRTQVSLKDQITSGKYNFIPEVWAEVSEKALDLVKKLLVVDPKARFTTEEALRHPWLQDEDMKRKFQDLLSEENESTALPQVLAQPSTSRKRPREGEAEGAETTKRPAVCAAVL

IC50 (human Chk2 kinase)	IC50 (human Chk1 kinase)	SMILES
10 to 100 µM	0.0316 to 0.1 µM	CN1CCCN(c2cccc(-n3cnc(Nc4cnc(C#N)cn4)c3)c2)CC1 [Example 33, 5-((1-(3-(4-Methyl-1,4-diazepan-1-yl)phenyl)-1H-imidazol-4-yl)amino)pyrazine-2-carbonitrile]
10 to 100 µM	0.0316 to 0.1 µM	CN(C)C1CCCN(c2cccc(-n3cnc(Nc4cnc(C#N)cn4)c3)c2)C1 (single isomer, unassigned) [Example 111, 5-((1-(3-(3-(Dimethylamino)piperidin-1-yl)phenyl)-1H-imidazol-4-yl)amino)pyrazine-2-carbonitrile]
10 to 100 µM	0.01 to 0.0316 µM	C[C@@H]1CN(C)CCN1c1ccc(-n2cnc(Nc3cnc(C#N)cn3)c2)cc1 [Example 16, (R)-5-((1-(4-(2,4-Dimethylpiperazin-1-yl)phenyl)-1H-imidazol-4-yl)amino)pyrazine-2-carbonitrile]
> 100 µM	0.1 to 0.316 µM	CN1CCN(Cc2ccc(-n3cnc(Nc4cnc(C#N)cn4)c3)cc2)CC1 [Example 7, 5-((1-(4-((4-Methylpiperazin-1-yl)methyl)phenyl)-1H-imidazol-4-yl)amino)pyrazine-2-carbonitrile]
> 100 µM	< 0.01 µM	CN(C)C1CCCN(c2ccc(-n3cnc(Nc4cnc(C#N)cn4)c3)cc2)C1 (single isomer, unassigned) [Example 121, 5-((1-(4-(3-(Dimethylamino)piperidin-1-yl)phenyl)-1H-imidazol-4-yl)amino)pyrazine-2-carbonitrile]
10 to 100 µM	0.01 to 0.0316 µM	C[C@@H]1CCN1C1CCN(c2ccc(-n3cnc(Nc4cnc(C#N)cn4)c3)cc2)C1 (single isomer, unassigned) [Example 135]
> 100 µM	0.316 to 1 µM	Cc1cc(CN2CC[C@@H](F)C2)cc(C)c1-n1cnc(Nc2cnc(C#N)cn2)c1 [Example 57, (R)-5-((1-(4-((3-Fluoropyrrolidin-1-yl)methyl)-2,6-dimethylphenyl)-1H-imidazol-4-yl)amino)pyrazine-2-carbonitrile]
10 to 100 µM	0.0316 to 0.1 µM	CN1CCN(c2ccc(-n3cnc(Nc4cnc(C#N)cn4)c3)cc2)CC1(C)C [Example 97, 5-((1-(4-(3,3,4-Trimethylpiperazin-1-yl)phenyl)-1H-imidazol-4-yl)amino)pyrazine-2-carbonitrile]
10 to 100 µM	0.01 to 0.0316 µM	N#Cc1cnc(Nc2cn(-c3ccc(N4CC[C@@H](N5CCOCC5)C4)cc3)cn2)cn1 [Example 72, (R)-5-((1-(4-(3-Morpholinopyrrolidin-1-yl)phenyl)-1H-imidazol-4-yl)amino)pyrazine-2-carbonitrile]
10 to 100 µM	0.01 to 0.0316 µM	CN1CC2(CCN2c2ccc(-n3cnc(Nc4cnc(C#N)cn4)c3)cc2)C1 [Example 99, 5-((1-(4-(6-Methyl-1,6-diazaspiro[3.3]heptan-1-yl)phenyl)-1H-imidazol-4-yl)amino)pyrazine-2-carbonitrile]

Second part, the molecule before the results:

SMILES	IC50 (human Chk2 kinase)	IC50 (human Chk1 kinase)
N#Cc1cnc(Nc2cn(-c3ccc(N4CCC(N5CC(F)C5)C4)cc3)cn2)cn1 (single isomer, unassigned) [Example 130, 5-((1-(4-(3-(3-Fluoroazetidin-1-yl)pyrrolidin-1-yl)phenyl)-1H-imidazol-4-yl)amino)pyrazine-2-carbonitrile]	1 to 10 µM	0.01 to 0.0316 µM
COc1cc(OC2CN(C(C)(C)C)C2)ccc1-n1cnc(Nc2cnc(C#N)cn2)c1 [Example 53, 5-((1-(4-((1-(tert-Butyl)azetidin-3-yl)oxy)-2-methoxyphenyl)-1H-imidazol-4-yl)amino)pyrazine-2-carbonitrile]	10 to 100 µM	0.01 to 0.0316 µM
Cc1cc(CN2CC[C@@H](F)C2)cc(C(F)(F)F)c1-n1cnc(Nc2cnc(C#N)cn2)c1 [Example 54, (R)-5-((1-(4-((3-Fluoropyrrolidin-1-yl)methyl)-2-methyl-6-(trifluoromethyl)phenyl)-1H-imidazol-4-yl)amino)pyrazine-2-carbonitrile]	> 100 µM	0.1 to 0.316 µM
N#Cc1cnc(Nc2cn(-c3ccc(N4CC(F)(CN)C4)cc3)cn2)cn1 [Example 159, 5-((1-(4-(3-(Aminomethyl)-3-fluoroazetidin-1-yl)phenyl)-1H-imidazol-4-yl)amino)pyrazine-2-carbonitrile]	1 to 10 µM	0.01 to 0.0316 µM
C[C@H]1CCN1C1CCN(c2ccc(-n3cnc(Nc4cnc(C#N)cn4)c3)cc2)C1 (single isomer, unassigned) [Example 137]	> 100 µM	0.01 to 0.0316 µM
N#Cc1cnc(Nc2cn(-c3ccc(N4C[C@H]5CN[C@H]5C4)cc3)cn2)cn1 [Example 161, 5-((1-(4-((1R,5R)-3,6-Diazabicyclo[3.2.0]heptan-3-yl)phenyl)-1H-imidazol-4-yl)amino)pyrazine-2-carbonitrile]	1 to 10 µM	0.01 to 0.0316 µM
CN(C)C[C@@H]1CCCN1c1ccc(-n2cnc(Nc3cnc(C#N)cn3)c2)cc1 [Example 66, (S)-5-((1-(4-(2-((Dimethylamino)methyl)pyrrolidin-1-yl)phenyl)-1H-imidazol-4-yl)amino)pyrazine-2-carbonitrile]	10 to 100 µM	0.0316 to 0.1 µM
COc1cc(OC2CC3(C2)CN(C)C3)ccc1-n1cnc(Nc2cnc(C#N)cn2)c1 [Example 180, 5-((1-(2-Methoxy-4-((2-methyl-2-azaspiro[3.3]heptan-6-yl)oxy)phenyl)-1H-imidazol-4-yl)amino)pyrazine-2-carbonitrile]	10 to 100 µM	0.0316 to 0.1 µM
C[C@H]1CN(C)CCN1c1ccc(-n2cnc(Nc3cnc(C#N)cn3)c2)cc1 [Example 17, (S)-5-((1-(4-(2,4-Dimethylpiperazin-1-yl)phenyl)-1H-imidazol-4-yl)amino)pyrazine-2-carbonitrile]	10 to 100 µM	0.0316 to 0.1 µM
CN(C)C1CCN(c2ccc(-n3cnc(Nc4cnc(C#N)cn4)c3)cc2)CC1 [Example 37, 5-((1-(4-(4-(Dimethylamino)piperidin-1-yl)phenyl)-1H-imidazol-4-yl)amino)pyrazine-2-carbonitrile]	1 to 10 µM	< 0.01 µM
CC(C)N1CCN(c2ccc(-n3cnc(Nc4cnc(C#N)cn4)c3)cc2)CC1 [Example 186, 5-((1-(4-(4-Isopropylpiperazin-1-yl)phenyl)-1H-imidazol-4-yl)amino)pyrazine-2-carbonitrile]	> 100 µM	0.1 to 0.316 µM
COc1cc(CN2CCOCC2)ccc1-n1cnc(Nc2cnc(C#N)cn2)c1 [Example 173, 5-((1-(2-Methoxy-4-(morpholinomethyl)phenyl)-1H-imidazol-4-yl)amino)pyrazine-2-carbonitrile]	10 to 100 µM	0.0316 to 0.1 µM
CN(CCO)C1CCN(c2cccc(-n3cnc(Nc4cnc(C#N)cn4)c3)c2)C1 (single isomer, unassigned) [Example 109, 5-((1-(3-(3-((2-Hydroxyethyl)(methyl)amino)pyrrolidin-1-yl)phenyl)-1H-imidazol-4-yl)amino)pyrazine-2-carbonitrile]	> 100 µM	0.01 to 0.0316 µM
COc1cc(NC2CCN(C)CC2)ccc1-n1cnc(Nc2cnc(C#N)cn2)c1 [Example 13, 5-((1-(2-Methoxy-4-((1-methylpiperidin-4-yl)amino)phenyl)-1H-imidazol-4-yl)amino)pyrazine-2-carbonitrile]	10 to 100 µM	0.01 to 0.0316 µM
CN1CCC2(CCN2c2ccc(-n3cnc(Nc4cnc(C#N)cn4)c3)cc2)C1 (single isomer, unassigned) [Example 119, 5-((1-(4-(6-Methyl-1,6-diazaspiro[3.4]octan-1-yl)phenyl)-1H-imidazol-4-yl)amino)pyrazine-2-carbonitrile]	10 to 100 µM	0.01 to 0.0316 µM
N#Cc1cnc(Nc2cn(-c3ccc(N4CCC(N5CC6(CCC6)C5)C4)cc3)cn2)cn1 (single isomer, unassigned) [Example 131, 5-((1-(4-(3-(2-Azaspiro[3.3]heptan-2-yl)pyrrolidin-1-yl)phenyl)-1H-imidazol-4-yl)amino)pyrazine-2-carbonitrile]	1 to 10 µM	0.01 to 0.0316 µM
CN[C@H]1CN(c2ccc(-n3cnc(Nc4cnc(C#N)cn4)c3)c(OC)c2)C[C@H]1F [Example 164, 5-((1-(4-((3R,4S)-3-Fluoro-4-(methylamino)pyrrolidin-1-yl)-2-methoxyphenyl)-1H-imidazol-4-yl)amino)pyrazine-2-carbonitrile]	1 to 10 µM	< 0.01 µM
CN(C)[C@@H]1CCN(c2cccc(-n3cnc(Nc4cnc(C#N)cn4)c3)c2)C1 [Example 38, (R)-5-((1-(3-(3-(Dimethylamino)pyrrolidin-1-yl)phenyl)-1H-imidazol-4-yl)amino)pyrazine-2-carbonitrile]	10 to 100 µM	0.01 to 0.0316 µM
CN1CC2(CC(Oc3cccc(-n4cnc(Nc5cnc(C#N)cn5)c4)c3)C2)C1 [Example 175, 5-((1-(3-((2-Methyl-2-azaspiro[3.3]heptan-6-yl)oxy)phenyl)-1H-imidazol-4-yl)amino)pyrazine-2-carbonitrile]	10 to 100 µM	0.0316 to 0.1 µM
CN(C)[C@@H]1CCN(c2ccc(-n3cnc(Nc4cnc(C#N)cn4)c3)cc2C(F)(F)F)C1 [Example 70, (R)-5-((1-(4-(3-(Dimethylamino)pyrrolidin-1-yl)-3-(trifluoromethyl)phenyl)-1H-imidazol-4-yl)amino)pyrazine-2-carbonitrile]	1 to 10 µM	0.0316 to 0.1 µM
CN1CCN(c2ccc(-n3cnc(Nc4cnc(C#N)cn4)c3)cn2)CC1 [Example 19, 5-((1-(6-(4-Methylpiperazin-1-yl)pyridin-3-yl)-1H-imidazol-4-yl)amino)pyrazine-2-carbonitrile]	10 to 100 µM	0.1 to 0.316 µM
